Laboratory results: patent US20050004211A1, “Pharmaceutical compositions comprising aryl-substituted acyclic enediyne compounds” (KAOHSIUNG MEDICAL UNIVERSITY, priority 2003, published 2005)
Values after ≈ are worked out from the molar mass of the structure shown.

How the values were obtained:
Breast cancer cell MCF-7 = assay: Preliminary cytotoxicity test; assay type: cell-based, human
[1] = test system: Non-small cell Lung cancer cell NCI-H460; assay: Preliminary cytotoxicity test; assay type: cell-based, human
CNS cancer cell SF-268 = assay: Preliminary cytotoxicity test; assay type: cell-based, human
[2] = test system: NCI (NCI-H661): human lung large cell carcinoma; assay: In vitro anticancer assay (cytotoxicity), human solid tumor cells; settings: for IC50: Homo sapiens, NCI-H661, read-out: IC50 Values of Cytotoxicities, NCI; for IC50 Values of Cytotoxicities, NCI: NCI (NCI-H661)
[3] = test system: DLD (DLD-1): human colon adenocarcinoma; assay: as above; settings: for IC50: Homo sapiens, DLD-1, read-out: IC50 Values of Cytotoxicities, DLD
[4] = test system: Hela: human cervix epitheloid carcinoma; assay: as above; settings: for IC50: Homo sapiens, HeLa, read-out: IC50 Values of Cytotoxicities, Hela
[5] = test system: KB: human oral epidermoid carcinoma; assay: as above; settings: for IC50: Homo sapiens, read-out: IC50 Values of Cytotoxicities, KB
Hepa: human hepatoma = assay: as above; settings: for IC50: Homo sapiens, HepA, read-out: IC50 Values of Cytotoxicities, Hepa
topoisomerase I = target: T1, topoisomerase I (Homo sapiens, UniProt P11387); assay: Topoisomerase I course assay, cleavage of supercoiled pGEM9zf(−) DNA, gel electrophoresis; assay type: biochemical; settings: for topo I inhibitor, overall finding: no concentration stated
T1 sequence (P11387 1-765): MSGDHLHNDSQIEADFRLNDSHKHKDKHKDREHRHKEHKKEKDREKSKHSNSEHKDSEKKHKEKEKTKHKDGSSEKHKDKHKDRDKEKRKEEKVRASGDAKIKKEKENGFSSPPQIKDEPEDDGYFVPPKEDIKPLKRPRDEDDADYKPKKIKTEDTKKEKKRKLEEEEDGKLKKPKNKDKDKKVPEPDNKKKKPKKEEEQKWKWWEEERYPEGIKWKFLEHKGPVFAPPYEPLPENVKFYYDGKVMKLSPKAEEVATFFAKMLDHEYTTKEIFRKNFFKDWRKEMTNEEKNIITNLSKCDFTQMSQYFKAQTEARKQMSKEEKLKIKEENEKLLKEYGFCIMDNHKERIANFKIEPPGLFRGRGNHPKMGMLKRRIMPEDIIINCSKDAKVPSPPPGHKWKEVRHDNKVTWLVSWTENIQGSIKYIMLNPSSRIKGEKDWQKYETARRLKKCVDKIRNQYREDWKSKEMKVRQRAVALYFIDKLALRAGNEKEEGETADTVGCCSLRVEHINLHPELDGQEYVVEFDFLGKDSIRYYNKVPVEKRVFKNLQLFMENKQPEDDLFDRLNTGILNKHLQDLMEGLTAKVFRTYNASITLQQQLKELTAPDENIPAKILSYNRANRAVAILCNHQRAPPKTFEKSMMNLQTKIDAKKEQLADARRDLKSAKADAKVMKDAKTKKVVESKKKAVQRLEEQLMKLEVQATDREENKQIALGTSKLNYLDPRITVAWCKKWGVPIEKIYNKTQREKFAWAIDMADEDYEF

Compound	IC50 [2]	IC50 [3]	IC50 [4]	IC50 [5]	IC50 (Hepa: human hepatoma)	IC50 Values of Cytotoxicities, NCI [2]	IC50 Values of Cytotoxicities, DLD [3]	IC50 Values of Cytotoxicities, Hela [4]	IC50 Values of Cytotoxicities, KB [5]	IC50 Values of Cytotoxicities, Hepa (Hepa: human hepatoma)	further results
2-(6-(2-thioanisyl)-3-hexen-1,5-diynyl)benzonitrile [Compound 31]	–	–	–	–	–	–	–	–	–	–	Growth percentage, Breast cancer cell MCF-7 (Breast cancer cell MCF-7): 62%; Growth percentage, Non-small cell Lung cancer cell NCI-H460 [1]: 100%; Growth percentage, CNS cancer cell SF-268 (CNS cancer cell SF-268): 164%
CCCCC#C/C=C\C#Cc1ccccc1 [Compound 6, (3Z)-Decen-1,5-diynylbenzene]	7.35 µg/mL (≈ 35.3 µM)	> 20 µg/mL	> 20 µg/mL	14.4 µg/mL (≈ 69.3 µM)	> 20 µg/mL	–	–	–	–	–	topo I inhibitor, overall finding (topoisomerase I): not Topo I inhibitors
N#Cc1ccccc1C#Cc1ccccc1C#CCOC1CCCCO1 (stereo not drawn) [Compound 7, 2-(2-(3-Tetrahydro-pyranyl-5-oxy-1-propynylphenyl)ethynyl)benzonitrile]	–	–	–	–	–	— (“—” means IC50 >20 μg/ml)	— (“—” means IC50 >20 μg/ml)	— (“—” means IC50 >20 μg/ml)	— (“—” means IC50 >20 μg/ml)	— (“—” means IC50 >20 μg/ml)	–
N#Cc1ccccc1C#Cc1ccccc1C#CCCCOC1CCCCO1 (stereo not drawn) [Compound 8]	–	–	–	–	–	— (“—” means IC50 >20 μg/ml)	11.65 µg/mL	— (“—” means IC50 >20 μg/ml)	— (“—” means IC50 >20 μg/ml)	— (“—” means IC50 >20 μg/ml)	–
CCCCC#Cc1ccccc1C#Cc1ccccc1C#N [Compound 9, 2-(2-(2-Hexynylphenyl)ethynyl)benzonitrile]	–	–	–	–	–	— (“—” means IC50 >20 μg/ml)	8.98 µg/mL	— (“—” means IC50 >20 μg/ml)	— (“—” means IC50 >20 μg/ml)	— (“—” means IC50 >20 μg/ml)	inhibition of topo I (topoisomerase I; 0.87 μM compound): no supercoiled DNA observed; inhibition of topo I (topoisomerase I; 8.7 μM compound): no supercoiled DNA observed; inhibition of topo I (topoisomerase I; 87 μM compound): showed restraint of topo I
CCCCCC#Cc1ccccc1C#Cc1ccccc1C#N [Compound 10, 2-(2-(2-Heptynylphenyl)ethynyl)benzonitrile]	–	–	–	–	–	9.22 µg/mL	16.25 µg/mL	— (“—” means IC50 >20 μg/ml)	— (“—” means IC50 >20 μg/ml)	5.13 µg/mL	inhibition of topo I (topoisomerase I; 0.87 μM compound): no inhibition of topo I; inhibition of topo I (topoisomerase I; 8.7 μM compound): displayed inhibitory activity against topo I; inhibition of topo I (topoisomerase I; 87 μM compound): displayed inhibitory activity against topo I
CCCCCCC#C/C=C\C#Cc1ccc(C#C/C=C\C#CCCCCCC)cc1 [Compound 11, 1,4-Bis-(3-(Z)-Dodecen-1,5-diynyl)benzene]	> 20 µg/mL	> 20 µg/mL	> 20 µg/mL	> 20 µg/mL	> 20 µg/mL	–	–	–	–	–	inhibition of topo I (topoisomerase I; 8.7 μM compound): No supercoiled DNA was observed; inhibition of topo I (topoisomerase I; 87 μM compound): No supercoiled DNA was observed; topo I inhibitor, overall finding (topoisomerase I): not topo I inhibitors
CCCCCCC#C/C=C\C#Cc1ccc(-c2ccc(C#C/C=C\C#CCCCCCC)cc2)cc1 [Compound 12, 4,4′-Bis-(3-(Z)-Dodecen-1,5-diynyl)biphenyl]	> 20 µg/mL	> 20 µg/mL	> 20 µg/mL	5.57 µg/mL (≈ 11.8 µM)	> 20 µg/mL	–	–	–	–	–	inhibition of topo I (topoisomerase I; 8.7 μM compound): No supercoiled DNA was observed; inhibition of topo I (topoisomerase I; 87 μM compound): No supercoiled DNA was observed; topo I inhibitor, overall finding (topoisomerase I): not topo I inhibitors
CCCCCCC#C/C=C\C#Cc1ccc(C#N)cc1 [Compound 14, 4-(3-(Z)-Dodecen-1,5-diynyl)benzonitrile]	> 20 µg/mL	11.9 µg/mL (≈ 45.6 µM)	> 20 µg/mL	> 20 µg/mL	> 20 µg/mL	–	–	–	–	–	–
CCCCCCC#C/C=C\C#Cc1ccccn1 [Compound 15, 2-(3-(Z)-Dodecen-1,5-diynyl)pyridine]	> 20 µg/mL	5.15 µg/mL (≈ 21.7 µM)	> 20 µg/mL	> 20 µg/mL	> 20 µg/mL	–	–	–	–	–	–
CCCCCCC#C/C=C\C#Cc1cccs1 [Compound 16, 2-(3-(Z)-Dodecen-1,5-diynyl)thiophene]	> 20 µg/mL	6.75 µg/mL (≈ 27.8 µM)	> 20 µg/mL	> 20 µg/mL	> 20 µg/mL	–	–	–	–	–	–
CCCCCCC#C/C=C\C#Cc1cnccn1 [Compound 17, 2-(3-(Z)-Dodecen-1,5-diynyl)pyrazine]	9.43 µg/mL (≈ 39.6 µM)	3.89 µg/mL (≈ 16.3 µM)	5.3 µg/mL (≈ 22.2 µM)	5.93 µg/mL (≈ 24.9 µM)	12.3 µg/mL (≈ 51.8 µM)	–	–	–	–	–	–
CCCCCCC#C/C=C\C#Cc1ccc(C(F)(F)F)cc1 [Compound 18, 4-(3-(Z)-Dodecen-1,5-diynyl)trifluoromethylbenzene]	–	–	–	–	–	11.15 µg/mL	5.71 µg/mL	5.86 µg/mL	4.32 µg/mL	17.08 µg/mL	inhibition of topo I (topoisomerase I; 87 μM compound): displayed inhibitory activities of topo I
CCCCCCC#C/C=C\C#Cc1cccc(C(F)(F)F)c1 [Compound 19, 3-(3-(Z)-Dodecen-1,5-diynyl)trifluoromethylbenzene]	–	–	–	–	–	7.73 µg/mL	7.05 µg/mL	— (“—” means IC50 >20 μg/ml)	6.74 µg/mL	14.39 µg/mL	–
CCCCCCC#C/C=C\C#Cc1ccccc1C(F)(F)F [Compound 20, 2-(3-(Z)-Dodecen-1,5-diynyl)trifluoromethylbenzene]	–	–	–	–	–	5.02 µg/mL	8.91 µg/mL	2.15 µg/mL	19.65 µg/mL	12.24 µg/mL	–
CCCCCCC#C/C=C\C#Cc1ccc([N+](=O)[O-])cc1 [Compound 21, 4-nitro-1-(3-(Z)-dodecen-1,5-diynyl)benzene]	> 20 µg/mL	1.66 µg/mL (≈ 5.9 µM)	> 20 µg/mL	13 µg/mL (≈ 46.2 µM)	> 20 µg/mL	–	–	–	–	–	–
CCCCCCC#C/C=C\C#Cc1ccccc1C(=O)O [Compound 22, 2-(3-(Z)-Dodecen-1,5-diynyl)benzoate]	–	–	–	–	–	— (“—” means IC50 >20 μg/ml)	7.27 µg/mL	— (“—” means IC50 >20 μg/ml)	— (“—” means IC50 >20 μg/ml)	— (“—” means IC50 >20 μg/ml)	–
CC[C@@]1(O)C(=O)OCc2c1cc1n(c2=O)Cc2cc3ccccc3nc2-1 [camptothecin, reference compound]	–	–	–	–	–	–	–	–	–	–	inhibition of topo I (topoisomerase I; 26.1 μM): less topo I inhibitory activity; inhibition of topo I (topoisomerase I; 43.5 μM): observable inhibition of topo I
